In ChEMBL document CHEMBL5375945, “Structure-Guided Design of a Domain-Selective Bromodomain and Extra Terminal N-Terminal Bromodomain Chemical Probe” (J Med Chem, 2023):

Experiments:
[1] = biological target: T1, Bromodomain-containing protein 4 (Homo sapiens, UniProt O60885); assay: Inhibition of BRD4 BD1 (unknown origin) by TR-FRET assay
[2] = biological target: T1, Bromodomain-containing protein 4; assay: Inhibition of BRD4 BD2 (unknown origin) by TR-FRET assay

CC(=O)N1CCC[C@H](Cn2c(-c3cc(C)c(=O)n(C)c3)nc3ccccc32)C1
IC50 [1]: 0.0316 µM | IC50 [2]: 0.501 µM

CC(=O)N1CCC[C@@H](Cn2c(-c3cc(C)c(=O)n(C)c3)nc3cc(Br)ccc32)C1
IC50 [1]: 0.01 µM | IC50 [2]: 0.501 µM

CC(=O)N1CCC[C@@H](Cn2c(-c3cc(C)c(=O)n(C)c3)nc3ccccc32)C1
IC50 [2]: 0.631 µM
